Values quoted from earlier work, collected in US20210361620A1 (Biosential, Inc., priority 2018, published 2021).

Assays:
humans = details: for potential side effects of supplementation: tryptophan: dose not given, melatonin: 1 mg to 5 mg, uncommon
[1] = system: subjects with mild insomnia or longer-than-average sleep latency; details: for effect on sleep (hypnotic effect): ingestion of a sufficient quantity
serum albumin = serum albumin (Homo sapiens, UniProt P02768); details: after ingestion and absorption
Sequence of serum albumin (P02768 25-609): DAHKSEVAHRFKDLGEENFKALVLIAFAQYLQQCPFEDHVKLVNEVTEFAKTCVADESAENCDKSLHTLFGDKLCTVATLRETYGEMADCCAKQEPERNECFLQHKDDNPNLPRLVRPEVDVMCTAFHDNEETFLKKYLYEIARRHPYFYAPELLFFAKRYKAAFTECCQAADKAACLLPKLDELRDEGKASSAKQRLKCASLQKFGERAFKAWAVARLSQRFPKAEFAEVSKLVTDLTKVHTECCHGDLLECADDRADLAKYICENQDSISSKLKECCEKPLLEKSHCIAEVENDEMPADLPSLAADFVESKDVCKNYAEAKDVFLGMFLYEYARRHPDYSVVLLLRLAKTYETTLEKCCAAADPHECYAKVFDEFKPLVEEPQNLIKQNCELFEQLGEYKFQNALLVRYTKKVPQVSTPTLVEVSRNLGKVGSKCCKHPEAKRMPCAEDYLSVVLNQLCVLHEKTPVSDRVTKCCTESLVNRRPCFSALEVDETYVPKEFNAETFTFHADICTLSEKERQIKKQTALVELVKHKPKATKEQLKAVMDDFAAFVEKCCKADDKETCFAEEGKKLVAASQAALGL

SMILES	potential side effects of supplementation (humans)	effect on sleep architecture at very high dose ([1]; doses above 12,000 mg)	effect on sleep (hypnotic effect) [1]	fraction bound to serum albumin in the circulation (serum albumin)	fraction circulating as free tryptophan (serum albumin)	effect on glucose metabolism (rats)	side effects of supplementation during the day (humans; daytime use)
N[C@@H](Cc1c[nH]c2ccccc12)C(=O)O [tryptophan]	drowsiness and minimal weight loss	disrupt sleep architecture	consistently reduces sleep latency	approximately 80%	20%		
COc1ccc2[nH]cc(CCNC(C)=O)c2c1 [melatonin]	drowsiness, headache, dizziness and nausea		reduce sleep latency, increase sleep duration and efficiency, and regulate the sleep-wake cycle			antihyperglycemic effect	sleepiness and hypothermia
